Experiment [1] relates to Felis catus. The experiment in a line: Induction of ganglion stimulating activity in cat assessed as increase in blood pressure at 1 to 300 ug/kg, iv by […]. Type of experiment: functional.
The species entered for experiment [2] is Oryctolagus cuniculus. Nature of the experiment: Agonist activity at muscarinic receptor in rabbit ileum assessed as […]. Type of experiment: tissue-based.
The species entered for experiment [3] is Oryctolagus cuniculus. Nature of the experiment: Agonist activity at muscarinic receptor in rabbit ileum assessed as […] relative to acetylcholine. The experiment is classed as tissue-based.
For experiment [4], the system named is Felis catus. The experiment in a line: Induction of ganglion stimulating activity in iv dosed cat assessed as slight increase in blood pressure administered at 300 ug/kg, iv by […]. The experiment is classed as functional, organism-based.

The results in this text go back to ChEMBL document CHEMBL3272329, “Stereochemical analogs of a muscarinic, ganglionic stimulant. 2. Cis and trans olefinic, epoxide, and cyclopropane analogs related to 4-[N-(3-chlorophenyl)carbamoyloxy]-2-butynyltrimethylammonium chloride (McN-A-343)” (1976).

Active and inactive are the calls of the source. The rule behind the calls is not given here.

Turning to `C[N+](C)(C)CC#CCOC(=O)Nc1ccc(Cl)cc1`, the outcome in experiment [1] was Active.
The same measure, in the same setting: next, `C[N+](C)(C)C[C@@H]1C[C@H]1COC(=O)Nc1ccc(Cl)cc1`: “inactive”.
As to `C[N+](C)(C)C[C@H]1O[C@H]1COC(=O)Nc1ccc(Cl)cc1` (relative stereo), the result in experiment [2] was inactive. Further, the result in experiment [1] was Active.
For `C[N+](C)(C)C/C=C/COC(=O)Nc1ccc(Cl)cc1.[I-]`, the Activity in experiment [3] came out at 1%. Moreover, the “fold change (FC)” value in experiment [1] was 3.
Take `C[N+](C)(C)C/C=C/COC(=O)Nc1cccc(Cl)c1`: in experiment [4], the result was Active.
On to `C[N+](C)(C)C/C=C\COC(=O)Nc1ccc(Cl)cc1.[I-]`, for which, in experiment [4], the result was Active. In experiment [2], the outcome was inactive. For the same molecule, the “fold change (FC)” value in experiment [1] turned out to be 3.
For the molecule `C[N+](C)(C)C[C@H]1C[C@H]1COC(=O)Nc1ccc(Cl)cc1` (relative stereo), the outcome in experiment [1] was inactive.
With `CN(C)C[C@@H]1C[C@@H]1CO` (relative stereo), in experiment [2], the outcome was inactive.
`C[N+](C)(C)C[C@H]1O[C@@H]1COC(=O)Nc1ccc(Cl)cc1` (relative stereo): the result in experiment [2] was inactive. For the same molecule, in experiment [1], the result was Active.
As for `C[N+](C)(C)CC#CCOC(=O)Nc1cccc(Cl)c1`, in experiment [1], the outcome was Active.
For `CN(C)C[C@H]1C[C@@H]1CO` (relative stereo), the result in experiment [2] was inactive.
